From patent publication US10376520B2, “Methods for the treatment of cardiovascular disorders” (Galapagos NV, priority 2015, dated 2019)

What was measured:
[1] = tested on: Japanese and Caucasian healthy subjects; test: [HDL] determination, Study 3 (healthy volunteers); type: in vivo, human; conditions: 200 mg q.d.
Procedure: Randomized, double-blind, placebo-controlled study for the assessment of safety, tolerability, pharmacokinetics, and pharmacodynamics, of multiple oral doses of Compound 1 (dosed as a [Compound 1:HCl:3H2O]) in Japanese and Caucasian healthy subjects.
Randomized, double-blind, placebo-controlled, single center, sequential design study.
Compound 1 (dosed as a [Compound 1:HCl:3H2O]) is administered for 10 days as oral film-coated tablet (25 and 100 mg and matching placebos). Placebo are provided as a matching tablet.
The study drug is ingested with 240 mL water after a standardized breakfast on Days 2-9. On PK days (Day 1 and Day 10) the study drug is administered in a fasted state (subjects will receive lunch 4 h after dosing on Day 1 and Day 10).
10 Japanese subjects (6 active, 4 placebo) and 10 Caucasian subjects (6 active, 4 placebo) will receive once daily an oral dose of 200 mg Compound 1 (dosed as a [Compound 1:HCl:3H2O]) or matching placebo as two tablets of 100 mg or matching placebo for 10 days. For practical reasons, these subjects may be split over separate groups, each group consisting of an equal number of Japanese and Caucasian Compound 1 (dosed as a [Compound 1:HCl:3H2O]) treated subjects and Japanese and Caucasian placebo subjects.
This assay relies on a homogeneous enzymatic colorimetric test. In the presence of magnesium ions, dextran sulfate selectively forms water-soluble complexes with LDL, VLDL and chylomicrons which are resistant to PEG-modified enzymes.
The cholesterol concentration of [HDL]-cholesterol is determined enzymatically by cholesterol esterase and cholesterol oxidase coupled with PEG to the amino groups (approx. 40%).
In the presence of peroxidase, the hydrogen peroxide generated reacts with 4-amino-antipyrine and Sodium N-(2-hydroxy-3-sulfopropyl)-3,5-dimethoxyaniline (HSDA) to form a purple-blue dye. The color intensity of this dye is directly proportional to the cholesterol concentration and is measured photometrically.
Human serum and plasma samples [HDL] determination was done on a Roche/Hitachi Cobas c 701/702 system which automatically calculate the analyte concentration of each sample. Samples containing precipitates are centrifuged before performing the assay.

[2] = tested on: RA patients; test: ApoA-I level (Selectra autoanalyzer), Study 4; type: in vivo, human; conditions: for ApoA-I level, 4 weeks CFB: 4 weeks change from baseline
Procedure: Randomized double-blind, placebo-controlled add on study in subjects with active RA who have an inadequate response to MTX monotherapy, in combination with methotrexate, administered for 4 weeks in the treatment of subjects with active rheumatoid arthritis who have an inadequate response to methotrexate alone.
Compound 1 (dosed as a [Compound 1:HCl:3H2O]) capsules administered orally in 30 mg, 75 mg, 150 mg, or 300 mg doses per day for 4 weeks.
ApoAI, and ApoB were measured on the Selectra autoanalyzer (Sopachem BV, 44-RI Straat 33, 4051 AP Ochten, The Netherlands). All assays were commercially available from DiaSys Diagnostic Systems GmbH, Alte Strasse 9, 65558 Holzheim, Germany.

SMILES: O=C(Nc1nc2cccc(-c3ccc(CN4CCS(=O)(=O)CC4)cc3)n2n1)C1CC1 [Compound 1, cyclopropanecarboxylic acid {5-[4-(1,1-dioxo-thiomorpholin-4-ylmethyl)-phenyl]-[1,2,4]triazolo[1,5-a]pyridin-2yl}-amide]
- [HDL] % Mean % variation vs baseline 10 days ([1]; Caucasian): 6%
- [HDL] levels ([1]; Caucasian, day 0): 1.5 mmol/L
- [HDL] levels ([1]; Caucasian, day 5): 1.5 mmol/L
- [HDL] levels ([1]; Caucasian, day 10): 1.6 mmol/L
- [HDL] levels ([1]; Caucasian, day 17): 1.6 mmol/L
- [HDL] % Mean % variation vs baseline 10 days ([1]; Japanese): 15.6%
- [HDL] levels ([1]; Japanese, day 0): 1.3 mmol/L
- [HDL] levels ([1]; Japanese, day 5): 1.3 mmol/L
- [HDL] levels ([1]; Japanese, day 10): 1.5 mmol/L
- [HDL] levels ([1]; Japanese, day 17): 1.4 mmol/L
- ApoA-I level, 4 weeks CFB ([2]; 30 mg q.d.): 5.2%
- ApoA-I level, Baseline ([2]; 30 mg q.d.): 148 mg/dL
- ApoA-I level, week 4 ([2]; 30 mg q.d.): 155 mg/dL
- ApoA-I level, 4 weeks CFB ([2]; 75 mg q.d.): 9.8%
- ApoA-I level, Baseline ([2]; 75 mg q.d.): 142 mg/dL
- ApoA-I level, week 4 ([2]; 75 mg q.d.): 156 mg/dL
- ApoA-I level, 4 weeks CFB ([2]; 150 mg q.d.): 5.5%
- ApoA-I level, Baseline ([2]; 150 mg q.d.): 140 mg/dL
- ApoA-I level, week 4 ([2]; 150 mg q.d.): 147 mg/dL
- ApoA-I level, 4 weeks CFB ([2]; 300 mg q.d.): 27.9%
- ApoA-I level, Baseline ([2]; 300 mg q.d.): 143 mg/dL
- ApoA-I level, week 4 ([2]; 300 mg q.d.): 179 mg/dL
